Source: patent US12319913B2, “5-halouracil-modified microRNAs and their use in the treatment of cancer” (The Research Foundation for The State University of New York, priority 2018, dated 2025)

Experiments:
MDC1 and SUZ12 = assay: Western blot of MDC1 and SUZ12 in triple negative breast cancer cells; format: cell-based, human
Protocol: (§1) Western immunoblot analysis: Forty-eight hours after transfection, equal amounts of protein (15 μg) extracted from cells lysed in RIPA buffer with protease inhibitor (Sigma) and were separated on 10%-12% sodium dodecyl sulfate-polyacrylamide gels using standard procedures. The primary antibodies used for the analysis were rabbit anti-YAP1 monoclonal antibody (1:10000) (Cell Signaling Technologies), anti-DLCK1 (1:500) (Abcam), anti-BCL2 (1:500) (NeoMarkers), anti-MDC1 (1:500), anti-SUZ12 (1:500), anti-pChk-1 (1:500), anti beta-actin (1:500), anti-BMI-1 (1:10000) (Cell Signaling Technologies), mouse anti-human TS antibody (1:500), anti-α-tubulin (1:50000) (Santa Cruz Biotech Inc.), anti-GAPDH (1:100000) (Santa Cruz Biotech Inc.), anti-E2F3 (1:500) (Santa Cruz Biotech Inc.), Horseradish peroxidase-conjugated antibodies against mouse or rabbit (1:5000, Santa Cruz Biotech Inc.) were used as the secondary antibodies. Protein bands were visualized with autoradiography film using SuperSignal West Pico Chemiluminescent Substrate (Thermo Fischer). Western blot density was quantified using Image J software.

[1] = test system: MDA-MB-231 breast cancer cells; assay: Triple negative breast cancer xenograft mouse model (MDA-MB-231, tail vein); format: in vivo; conditions: intravenous, every other day for 17 days, vs negative control and native miR-489
Protocol: Modified miR-489 inhibits breast cancer development and progression in vivo. A triple negative breast cancer xenograft mouse model was developed by tail vein injection of MDA-MB-231 breast cancer cells and tumors were developed over time. Mice were then injected with modified miR-489 composition having the nucleotide sequence set forth in SEQ ID NO: 32, exogenous native miR-489, or negative control miRNA by intravenous injection with treatment frequency of one injection every other day for 17 days and mice were euthanized and tumors size was measured using imaging techniques.

TS-FdUMP = molecular target: T1, TS-FdUMP (Homo sapiens, UniProt P04818); assay: Western blot of TS / TS-FdUMP in MDA-MB-231 cells; format: cell-based; conditions: breast cancer cells, FIG. 21B
T1 construct: endogenous in cells
Protocol: as §1

[2] = test system: MDA-MB-231 triple negative breast cancer cells; assay: MTT cell proliferation, MDA-MB-231, with or without oligofectamine; format: cell-based, human
Protocol: For transfections, 1×10^5 cells were plated in six-well plates and transfected with 100 nM of control non-specific miRNA (Thermo Fischer), a modified microRNA, or exogenous native microRNA after 24 hours using Oligofectamine (Thermo Fischer) following the manufacturer's protocols. For reagent free transfection, cells were plated in 6 well plates at (1×10^5) cells per well. Twenty-four hours later 100 pmol miRNA (Control, miR-15a, Mimic-1) were diluted in Optimem (Thermo Fischer) and added to the plate. Media was changed after 24 hours. Media was supplemented with 10% fetal bovine serum (Thermo Fischer). Briefly, cells were cultured in growth media (DMEM/F12 supplemented with B27, 10 ng/mL bFGF, and 20 ng/mL EGF (Life Technologies) in ultra-low attachment flasks) for up to 6 days. The spheroid cells were maintained by collection through gentle centrifugation, dissociation to single cells and replating.
Furthermore, to test whether or not the modified microRNAs of the present disclosure can be delivered directly to cells and taken up by the cancer cells without the use of transfer agents or vehicles (i.e., oligofectamine), MDA-MB-231 triple negative breast cancer cells were transfected with miR-NC (negative control), exogenous unmodified miR-200b or miR-489, 5-FU-miR-200b or modified miR-489 by using oligofectamine or without delivery vehicle. As shown in FIGS. 17A-17B and 20A, the effects of expression of the exemplary modified miRs tested on breast cancer cell proliferation were monitored by MTT assay for 6 days upon transfection or incubation.

[3] = test system: MDA-MB-231 breast cancer cells; assay: Cell cycle analysis, MDA-MB-231 breast cancer cells; format: cell-based, human; conditions: compared to native exogenous microRNAs or NC
Protocol: Cell cycle analysis: Twenty-four hours after transfection, cells were harvested and resuspended at 0.5 to 1×10^6 cells/mL in modified Krishan's buffer supplemented with 0.02 mg/mL RNase H and 0.05 mg/mL propidium iodide. Stained cells were detected by flow cytometry and results were analyzed with Modfit LT™ software. The experiments for cell cycle analysis were performed at least three times.

T1 sequence (P04818 2-313 limits assumed): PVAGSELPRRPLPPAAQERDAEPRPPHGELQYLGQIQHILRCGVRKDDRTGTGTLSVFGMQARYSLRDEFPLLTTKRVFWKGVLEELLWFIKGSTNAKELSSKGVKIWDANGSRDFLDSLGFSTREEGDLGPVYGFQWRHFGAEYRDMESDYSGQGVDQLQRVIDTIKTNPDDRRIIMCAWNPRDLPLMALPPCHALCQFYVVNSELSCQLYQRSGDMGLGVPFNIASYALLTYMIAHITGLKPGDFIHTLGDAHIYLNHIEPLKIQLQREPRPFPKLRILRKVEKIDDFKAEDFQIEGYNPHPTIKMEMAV

CGACGGCAU^FAU^FACACU^FACAGU^FG (CGACGGCAUAUACACUACAGUG; 5-fluorouracil replacing uracils, chemistry not fully specified) [modified miR-489]
MDC1 and SUZ12 protein expression without a transfection reagent (MDC1 and SUZ12; MDA-MB-231, no oligofectamine): inhibits MDC1 and SUZ12 protein expression | MDC1 and SUZ12 protein expression (MDC1 and SUZ12; triple negative breast cancer cells, western blot): further reduction of SUZ12 and MDC1 | tumor size [1]: drastic reduction in tumor size | expression of TS protein (TS-FdUMP): reduces the expression, and thus activity of TS protein | cell proliferation without delivery vehicle (no oligofectamine) ([2]; MDA-MB-231, MTT assay): effectively reduced cell proliferation | cell proliferation in the presence of oligofectamine ([2]; MDA-MB-231, MTT assay for 6 days, vs miR-NC): dramatically reduced the cell growth from day 3 | sub G1 and G1/S ratio [3]: significantly increase
